Test results as given in patent publication US10759767B2 (priority 2012, dated 2020).
Read-outs that look alike come from different tables or passages of the source.

Columns and labels:
Alternaria solani = assay: Microtest: activity against early blight caused by Alternaria solani (Alteso); assay type: cell-based; details: for inhibition of growth at 6.3e-05 ppm: solo 0.000063 ppm
Pyricularia oryzae = assay: microbe, parasite or virus in culture; assay type: cell-based; details: for Observed efficacy: solo product
Septoria tritici = assay: Microtest: activity against leaf blotch on wheat caused by Septoria tritici (Septtr); assay type: cell-based; details: solo product
Leptosphaeria nodorum = assay: Microtest: activity against wheat leaf spots caused by Leptosphaeria nodorum (Leptno); assay type: cell-based
Phytophthora infestans = assay: microbe, parasite or virus in culture; assay type: cell-based; details: for Observed efficacy: solo product
Botrytis cinerea = assay: Microtest: activity against the grey mold Botrytis cinerea (Botrci); assay type: cell-based; details: for inhibition of growth at 6.3e-05 ppm: solo 0.000063 ppm
[1] = Pyricularia oryzae, 168 h, read-out: Observed efficacy
[2] = Alternaria solani, 168 h, read-out: Observed efficacy
[3] = Phytophthora infestans, 168 h, read-out: Observed efficacy
[4] = Zymoseptoria tritici, 168 h, second Septtr microtest, 0.000016 ppm, read-out: Observed efficacy
[5] = Botrytis cinerea, 168 h, read-out: Observed efficacy
[6] = Botrytis cinerea, 168 h, solo 0.063 ppm, read-out: Observed efficacy
[7] = second Septtr microtest, 0.016 ppm
[8] = second Septtr microtest, 16 ppm
[9] = second Septtr microtest, 63 ppm

Compound: Cn1cc(C(=O)Nc2ccccc2-c2cc(F)c(F)c(F)c2)c(C(F)F)n1 [II-42, fluxapyroxad, reference compound]
- Observed efficacy (Alternaria solani; solo 0.001 ppm): 4
- Observed efficacy (Alternaria solani; solo product, 0.001 ppm): 4%

Compound: COC(=O)N(OC)c1ccccc1COc1ccn(-c2ccc(Cl)cc2)n1 [II-66, pyraclostrobin, reference compound]
- inhibition of growth at 0.016 ppm (Alternaria solani; Alternaria solani, 168 h, solo 0.016 ppm, read-out: Observed efficacy): 18%
- Observed efficacy (Alternaria solani; solo 0.004 ppm): 8
- inhibition of growth at 0.001 ppm (Pyricularia oryzae; [1]): 5%
- Observed efficacy (Septoria tritici; second Septtr microtest, 0.004 ppm): 37%
- Observed efficacy (Septoria tritici; 0.001 ppm): 12
- Observed efficacy (Septoria tritici; 0.004 ppm): 37
- inhibition of growth at 0.016 ppm (Leptosphaeria nodorum; Parastagonospora nodorum, 168 h, solo 0.016 ppm, read-out: Observed efficacy): 24%

Compound: CC(O)(Cn1cncn1)c1ccc(Oc2ccc(Cl)cc2)cc1C(F)(F)F (stereo not shown) [I-3, 2-[4-(4-chlorophenoxy)-2-(trifluoromethyl)phenyl]-1-(1,2,4-triazol-1-yl)propan-2-ol]
- inhibition of growth at 4e-06 ppm (Alternaria solani; Alternaria solani, 168 h, solo 0.000004 ppm, read-out: Observed efficacy): 5%
- inhibition of growth at 6.3e-05 ppm (Alternaria solani; [2]): 8%
- Observed efficacy (Alternaria solani; solo product, 0.000016 ppm): 0%
- inhibition of growth at 4 ppm (Phytophthora infestans; [3]): 4%
- inhibition of growth at 16 ppm (Phytophthora infestans; [3]): 4%
- inhibition of growth at 0.004 ppm (Pyricularia oryzae; [1]): 0%
- inhibition of growth at 1 ppm (Pyricularia oryzae; [1]): 37%
- inhibition of growth at 2.5e-07 ppm (Septoria tritici; Zymoseptoria tritici, 168 h, second Septtr microtest, 0.00000025 ppm, read-out: Observed efficacy): 8%
- inhibition of growth at 1e-06 ppm (Septoria tritici; Zymoseptoria tritici, 168 h, second Septtr microtest, 0.000001 ppm, read-out: Observed efficacy): 5%
- inhibition of growth at 4e-06 ppm (Septoria tritici; Zymoseptoria tritici, 168 h, second Septtr microtest, 0.000004 ppm, read-out: Observed efficacy): 14%
- inhibition of growth at 1.6e-05 ppm (Septoria tritici; [4]): 16%
- Observed efficacy (Septoria tritici; 0.000016 ppm): 16
- Observed efficacy (Septoria tritici; 0.004 ppm): 54
- inhibition of growth at 6.3e-05 ppm (Leptosphaeria nodorum; Parastagonospora nodorum, 168 h, solo product, 0.000063 ppm, read-out: Observed efficacy): 26%
- inhibition of growth at 4e-06 ppm (Botrytis cinerea; Botrytis cinerea, 168 h, solo 0.000004 ppm, read-out: Observed efficacy): 0%
- inhibition of growth at 1.6e-05 ppm (Botrytis cinerea; Botrytis cinerea, 168 h, solo 0.000016 ppm, read-out: Observed efficacy): 5%
- inhibition of growth at 6.3e-05 ppm (Botrytis cinerea; [5]): 0%
- inhibition of growth at […] (Botrytis cinerea; [6]): 23%

Compound: CC(C)(C)C(O)(CCc1ccc(Cl)cc1)Cn1cncn1 (stereo not shown) [Tebuconazol]
- Observed efficacy (Alternaria solani; solo 0.016 ppm): 8
- Observed efficacy (Phytophthora infestans; 1 ppm): 25
- Observed efficacy (Botrytis cinerea; solo 0.016 ppm): 9

Compound: N#Cc1c(Cl)c(Cl)c(Cl)c(C#N)c1Cl [II-11, chlorothalonil, reference compound]
- Observed efficacy (Leptosphaeria nodorum; solo 1 ppm): 28

Compound: CC(C)C1C2CCC1c1c(NC(=O)c3cn(C)nc3C(F)F)cccc12 (stereo not shown) [II-50, isopyrazam, reference compound]
- Observed efficacy (Alternaria solani; solo 0.016 ppm): 15
- Observed efficacy (Botrytis cinerea; solo 0.016 ppm): 6

Compound: CCCCCCCCc1c(CC)nc2ncnn2c1N [II-1, ametoctradin, reference compound]
- Observed efficacy (Alternaria solani; solo 4 ppm): 5
- Observed efficacy (Alternaria solani; solo 16 ppm): 2
- Observed efficacy (Alternaria solani; solo 63 ppm): 6
- Observed efficacy (Botrytis cinerea; solo 16 ppm): 3
- Observed efficacy (Botrytis cinerea; solo 63 ppm): 4

Compound: CC1(C)CC/C(=C\c2ccc(Cl)cc2)C1(O)Cn1cncn1 (stereo not shown) [Triticonazol]
- Observed efficacy (Phytophthora infestans; 16 ppm): 0%
- Observed efficacy (Pyricularia oryzae; 1 ppm): 1%
- Observed efficacy (Pyricularia oryzae; 4 ppm): 59%

Compound: O=C(Nc1ccccc1-c1ccc(Cl)cc1)c1cccnc1Cl [II-7, boscalid, reference compound]
- Observed efficacy (Alternaria solani; solo 0.001 ppm): 5
- Observed efficacy (Alternaria solani; solo 0.004 ppm): 6
- Observed efficacy (Leptosphaeria nodorum; solo 4 ppm): 23

Compound: N#Cc1nn(-c2c(Cl)cc(C(F)(F)F)cc2Cl)c(N)c1[S+]([O-])C(F)(F)F (stereo not shown) [II-20c, fipronil, reference compound]
- Observed efficacy (Alternaria solani; solo 1 ppm): 6
- Observed efficacy (Alternaria solani; solo 4 ppm): 2

Compound: N#Cc1c[nH]cc1-c1cccc2c1OC(F)(F)O2 [II-34, fludioxonil, reference compound]
- Observed efficacy (Alternaria solani; solo product, 0.016 ppm): 13%
- Observed efficacy (Phytophthora infestans; 1 ppm): 0%

Compound: Cc1ccc(C(C)NC(=O)[C@@H](NC(=O)OC(C)C)C(C)C)cc1 (stereo partly shown) [II-51, iprovalicarb, reference compound]
- Observed efficacy (Alternaria solani; solo 4 ppm): 1
- Observed efficacy (Alternaria solani; solo 16 ppm): 2
- Observed efficacy (Alternaria solani; solo 63 ppm): 1
- Observed efficacy (Leptosphaeria nodorum; solo 16 ppm): 19
- Observed efficacy (Botrytis cinerea; solo 4 ppm): 2
- Observed efficacy (Botrytis cinerea; solo 16 ppm): 3
- Observed efficacy (Botrytis cinerea; solo 63 ppm): 6

Compound: CC1(C)CCC(Cc2ccc(Cl)cc2)C1(O)Cn1cncn1 (stereo not shown) [Metconazol]
- Observed efficacy (Alternaria solani; solo 0.016 ppm): 17
- Observed efficacy (Septoria tritici; [7]): 24%

Compound: COC(=O)Nc1nc2ccccc2[nH]1 [II-8, carbendazim, reference compound]
- Observed efficacy (Alternaria solani; solo 4 ppm): 7
- Observed efficacy (Alternaria solani; solo 16 ppm): 10
- Observed efficacy (Alternaria solani; solo 63 ppm): 34
- inhibition of growth at 4 ppm (Phytophthora infestans; [3]): 24%
- Observed efficacy (Septoria tritici; [8]): 16%

Compound: CO/C=C(/C(=O)OC)c1ccccc1Oc1cc(Oc2ccccc2C#N)ncn1 [II-3, azoxystrobin, reference compound]
- Observed efficacy (Alternaria solani; solo 0.004 ppm): 6
- Observed efficacy (Alternaria solani; solo 0.016 ppm): 14
- Observed efficacy (Botrytis cinerea; solo 4 ppm): 14
- Observed efficacy (Botrytis cinerea; solo 16 ppm): 23

Compound: Fc1ccc([C@]2(Cn3cncn3)O[C@H]2c2ccccc2Cl)cc1 [Epoxiconazol]
- Observed efficacy (Alternaria solani; solo 0.004 ppm): 5
- Observed efficacy (Alternaria solani; solo 0.016 ppm): 8
- Observed efficacy (Phytophthora infestans; 4 ppm): 27
- Observed efficacy (Septoria tritici; [7]): 16%
- Observed efficacy (Botrytis cinerea; solo 0.016 ppm): 11

Compound: CN1COCN(Cc2cnc(Cl)s2)/C1=N\[N+](=O)[O-] [Thiamethoxam]
- Observed efficacy (Alternaria solani; solo 1 ppm): 10
- Observed efficacy (Alternaria solani; solo 4 ppm): 51
- Observed efficacy (Septoria tritici; second Septtr microtest, 1 ppm): 57%
- Observed efficacy (Leptosphaeria nodorum; solo 1 ppm): 22
- Observed efficacy (Leptosphaeria nodorum; solo 4 ppm): 51

Compound: CO/N=C(/C1=NOCCO1)c1ccccc1Oc1ncnc(Oc2ccccc2Cl)c1F [II-37, fluoxastrobin, reference compound]
- Observed efficacy (Alternaria solani; solo 0.016 ppm): 11

Compound: C[N+]1(C)CCCCC1.[Cl-] [Mepiquat-cl]
- Observed efficacy (Alternaria solani; solo 16 ppm): 10
- Observed efficacy (Alternaria solani; solo 63 ppm): 16
- Observed efficacy (Septoria tritici; [9]): 16%
- Observed efficacy (Leptosphaeria nodorum; solo 63 ppm): 28
- Observed efficacy (Botrytis cinerea; solo 16 ppm): 11

Compound: CCC(=O)C1=C([O-])CC(C(=O)[O-])CC1=O.[Ca+2] (stereo not shown) [Prohexadion-Ca]
- Observed efficacy (Alternaria solani; solo 4 ppm): 6
- Observed efficacy (Alternaria solani; solo 16 ppm): 2
- Observed efficacy (Alternaria solani; solo 63 ppm): 2
- Observed efficacy (Septoria tritici; [9]): 15%
- Observed efficacy (Leptosphaeria nodorum; solo 63 ppm): 23
- Observed efficacy (Botrytis cinerea; solo 4 ppm): 10
- Observed efficacy (Botrytis cinerea; solo 16 ppm): 5
- Observed efficacy (Botrytis cinerea; solo 63 ppm): 4

Compound: CON=C(C(=O)OC)c1ccccc1CON=C(C)c1cccc(C(F)(F)F)c1 [II-92, trifloxystrobin, reference compound]
- Observed efficacy (Alternaria solani; solo 0.004 ppm): 7
- Observed efficacy (Alternaria solani; solo 0.016 ppm): 11
- inhibition of growth at 1 ppm (Phytophthora infestans; [3]): 37%

Compound: CC#CC(O)(Cn1cncn1)c1ccc(Oc2ccc(Cl)cc2)cc1C(F)(F)F (stereo not shown)
- melting point: 137 °C

Compound: Cc1ccc(-c2c(Cl)nc(C#N)n2S(=O)(=O)N(C)C)cc1 [II-12, cyazofamid, reference compound]
- Observed efficacy (Alternaria solani; solo 4 ppm): 14
- Observed efficacy (Alternaria solani; solo 16 ppm): 35
- Observed efficacy (Septoria tritici; [8]): 40%

Compound: CCOC(=O)C1CC(=O)C(=C(O)C2CC2)C(=O)C1 (stereo not shown) [II-3a, trinexapac-ethyl, reference compound]
- Observed efficacy (Alternaria solani; solo 4 ppm): 12
- Observed efficacy (Alternaria solani; solo 16 ppm): 27
- Observed efficacy (Septoria tritici; second Septtr microtest, 4 ppm): 13%
- inhibition of growth at 63 ppm (Leptosphaeria nodorum; Parastagonospora nodorum, 168 h, solo 63 ppm, read-out: Observed efficacy): 17%

Compound: OC(Cn1cncn1)(c1ccc(Oc2ccc(Cl)cc2)cc1Cl)C1CC1 (stereo not shown)
- melting point: 110 °C

Compound: Cn1cc(C(=O)Nc2ccc(F)cc2-c2ccc(Cl)c(Cl)c2)c(C(F)F)n1 [II-6, bixafen, reference compound]
- Observed efficacy (Alternaria solani; solo 0.001 ppm): 5
- Observed efficacy (Alternaria solani; solo 0.004 ppm): 38
- Observed efficacy (Phytophthora infestans; 1 ppm): 25
- Observed efficacy (Botrytis cinerea; solo 0.016 ppm): 8

Compound: O=c1c2cc(F)ccc2nc(-n2cncn2)n1-c1ccc(Cl)cc1Cl [Fluquinconazol]
- Observed efficacy (Phytophthora infestans; 4 ppm): 0%
- Observed efficacy (Pyricularia oryzae; 1 ppm): 1%
- Observed efficacy (Septoria tritici; 0.004 ppm): 0%

Compound: CCN(Cc1ccc(Cl)nc1)/C(=C/[N+](=O)[O-])NC [Nitenpyram]
- Observed efficacy (Alternaria solani; solo 4 ppm): 2
- Observed efficacy (Alternaria solani; solo 16 ppm): 2
- Observed efficacy (Alternaria solani; solo 63 ppm): 8
- Observed efficacy (Septoria tritici; [9]): 10%
- Observed efficacy (Leptosphaeria nodorum; solo 63 ppm): 23

Compound: CC1COC(Cn2cncn2)(c2ccc(Oc3ccc(Cl)cc3)cc2Cl)O1 (stereo not shown) [Difenoconazol]
- Observed efficacy (Alternaria solani; solo 0.004 ppm): 5
- Observed efficacy (Alternaria solani; solo 0.016 ppm): 5
- Observed efficacy (Phytophthora infestans; 4 ppm): 30
- Observed efficacy (Septoria tritici; [7]): 26%
- Observed efficacy (Leptosphaeria nodorum; solo 0.016 ppm): 29

Compound: OC(Cc1ccccc1Cl)(Cn1nc[nH]c1=S)C1(Cl)CC1 (stereo not shown) [Prothioconazol]
- Observed efficacy (Alternaria solani; solo 1 ppm): 66
- Observed efficacy (Septoria tritici; [7]): 17%
- Observed efficacy (Leptosphaeria nodorum; solo 1 ppm): 43
- Observed efficacy (Botrytis cinerea; solo 1 ppm): 36
- Observed efficacy (Botrytis cinerea; solo 4 ppm): 72

Compound: OC(Cn1cncn1)(c1ccc(Oc2ccc(Cl)cc2)cc1C(F)(F)F)C1CC1 (stereo not shown) [I-4, 1-[4-(4-chlorophenoxy)-2-(trifluoromethyl)phenyl]-1-cyclopropyl-2-(1,2,4-triazol-1-yl)ethanol]
- inhibition of growth at 6.3e-05 ppm (Alternaria solani; [2]): 5%
- inhibition of growth at […] (Alternaria solani; Alternaria solani, 168 h, solo 0.00025 ppm, read-out: Observed efficacy): 7%
- inhibition of growth at 0.001 ppm (Alternaria solani; Alternaria solani, 168 h, solo 0.001 ppm, read-out: Observed efficacy): 10%
- inhibition of growth at […] (Alternaria solani; Alternaria solani, 168 h, solo 0.25 ppm, read-out: Observed efficacy): 33%
- inhibition of growth at 4 ppm (Phytophthora infestans; [3]): 3%
- inhibition of growth at 16 ppm (Phytophthora infestans; [3]): 9%
- inhibition of growth at 1 ppm (Pyricularia oryzae; [1]): 47%
- inhibition of growth at 1.6e-05 ppm (Septoria tritici; [4]): 3%
- inhibition of growth at 6.3e-05 ppm (Septoria tritici; Zymoseptoria tritici, 168 h, second Septtr microtest, 0.000063 ppm, read-out: Observed efficacy): 8%
- inhibition of growth at 0.001 ppm (Septoria tritici; Zymoseptoria tritici, 168 h, 0.001 ppm, read-out: Observed efficacy): 0%
- Observed efficacy (Septoria tritici; second Septtr microtest, 0.001 ppm): 0%
- Observed efficacy (Septoria tritici; 0.016 ppm): 18
- inhibition of growth at 0.001 ppm (Leptosphaeria nodorum; Parastagonospora nodorum, 168 h, solo 0.001 ppm, read-out: Observed efficacy): 15%
- inhibition of growth at 6.3e-05 ppm (Botrytis cinerea; [5]): 4%
- inhibition of growth at […] (Botrytis cinerea; Botrytis cinerea, 168 h, solo 0.00025 ppm, read-out: Observed efficacy): 2%
- inhibition of growth at 0.001 ppm (Botrytis cinerea; Botrytis cinerea, 168 h, solo 0.001 ppm, read-out: Observed efficacy): 5%
- inhibition of growth at […] (Botrytis cinerea; [6]): 4%
- inhibition of growth at […] (Botrytis cinerea; Botrytis cinerea, 168 h, solo 0.25 ppm, read-out: Observed efficacy): 17%
